Measured values: patent publication US9156796B2, “Benzoimidazole-carboxylic acid amide derivatives as APJ receptor modulators” (SANOFI, priority 2013, dated 2015)

target: T1, human apelin receptor (Homo sapiens, UniProt P35414); test: Determination of agonism on the human apelin receptor by a calcium fluorescence assay (FLIPR); assay type: cell-based; conditions: HEK293 cells stably transfected with human apelin receptor and Giaq protein, Fluo-4 calcium fluorescence, read-out: EC50 (APJ agonism)
T1 construct: expressed in transfected cells
T1 sequence (P35414 1-380): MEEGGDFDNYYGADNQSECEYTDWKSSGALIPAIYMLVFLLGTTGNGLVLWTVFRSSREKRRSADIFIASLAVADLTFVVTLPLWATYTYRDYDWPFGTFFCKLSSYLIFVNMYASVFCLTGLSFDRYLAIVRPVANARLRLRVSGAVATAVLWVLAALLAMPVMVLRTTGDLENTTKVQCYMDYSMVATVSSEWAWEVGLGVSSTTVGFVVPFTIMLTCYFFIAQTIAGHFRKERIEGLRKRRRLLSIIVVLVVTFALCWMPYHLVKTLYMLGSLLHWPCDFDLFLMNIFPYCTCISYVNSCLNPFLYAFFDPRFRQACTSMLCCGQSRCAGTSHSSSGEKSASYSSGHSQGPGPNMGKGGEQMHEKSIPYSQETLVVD
Outline: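 HEK293 cells stably co-expressing human apelin receptor and promiscuous Giaq, loaded 1 h at 37 °C with Fluo-4 (4 μM) in probenecid-containing Hepes buffer, pH 7.4. Compounds, at least 7 concentrations in triplicate, added in FLIPR Tetra; peak calcium fluorescence normalized to 1 μM apelin-13 as 100% to derive EC50.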

Compound | EC50
CC(C)C[C@H](NC(=O)c1ccc2c(c1)nc(Cc1cccs1)n2C1CCCCC1)C(N)=O [Example 168, 1-Cyclohexyl-2-thiophen-2-ylmethyl-1H-benzoimidazole-5-carboxylic acid ((S)-1-carbamoyl-3-methyl-butyl)-amide] | 4.53 µM
CCC(CC)n1c(Cc2cccs2)nc2cc(C(=O)N[C@H](CSc3nnc[nH]3)CC(C)C)ccc21 [Example 483, 1-(1-Ethyl-propyl)-2-thiophen-2-ylmethyl-1H-benzoimidazole-5-carboxylic acid [(S)-3-methyl-1-(4H-[1,2,4]triazol-3-ylsulfanylmethyl)-butyl]-amide] | 2.08 µM
CC(C)C[C@@H](CC(=O)O)NC(=O)c1ccc2c(c1)nc(Cc1cccs1)n2C1CCCCC1C (single isomer, unassigned) [Example 437] | 4.91 µM
CC(C)C[C@@H](CC(=O)O)NC(=O)c1ccc2c(c1)nc(Cc1cccs1)n2C1CCCC1C (stereo partly drawn) [Example 104, (S)-5-Methyl-3-{[1-(2-methyl-cyclopentyl)-2-thiophen-2-ylmethyl-1H-benzoimidazole-5-carbonyl]-amino}-hexanoic acid] | 0.479 µM
CCC(CC)n1c(Cc2cccs2)nc2cc(C(=O)N[C@@H](CC(C)C)C(=O)N3CCC(N4CCC(C)CC4)CC3)ccc21 [Example 282, 1-(1-Ethyl-propyl)-2-thiophen-2-ylmethyl-1H-benzoimidazole-5-carboxylic acid [(S)-3-methyl-1-(4-methyl-[1,4′]bipiperidinyl-1′-carbonyl)-butyl]-amide] | 0.43 µM
CCC(CC)n1c(Cc2cccs2)nc2cc(C(=O)N[C@@H](CC(C)C)C(=O)NCc3ccc4c(c3)OCO4)ccc21 [Example 239, 1-(1-Ethyl-propyl)-2-thiophen-2-ylmethyl-1H-benzoimidazole-5-carboxylic acid {(S)-1-[(benzo[1,3]dioxol-5-ylmethyl)-carbamoyl]-3-methyl-butyl}-amide] | 5.59 µM
CCC[C@H](NC(=O)c1ccc2c(c1)nc(Cc1cccs1)n2[C@@H]1CCCC[C@H]1C)C(=O)O [Example 91, (S)-2-{[1-((1R,2R)-2-Methyl-cyclohexyl)-2-thiophen-2-ylmethyl-1H-benzoimidazole-5-carbonyl]-amino}-pentanoic acid] | 0.137 µM
CCC(CC)n1c(Cc2cccs2)nc2cc(C(=O)N[C@@H](CC(C)C)C(=O)N(C)CCc3ccccn3)ccc21 [Example 240, 1-(1-Ethyl-propyl)-2-thiophen-2-ylmethyl-1H-benzoimidazole-5-carboxylic acid {(S)-3-methyl-1-[methyl-(2-pyridin-2-yl-ethyl)-carbamoyl]-butyl}-amide] | 0.614 µM
CC(C)C[C@@H](CCC(=O)O)NC(=O)c1ccc2c(c1)nc(Cc1cccs1)n2[C@@H]1CCCC[C@H]1C [Example 70, (R)-6-Methyl-4-{[1-((1R,2R)-2-methyl-cyclohexyl)-2-thiophen-2-ylmethyl-1H-benzoimidazole-5-carbonyl]-amino}-heptanoic acid] | 0.179 µM
CCCCC(NC(=O)c1ccc2c(c1)nc(Cc1cccs1)n2C(CC)CC)C(C)(C)C(=O)O (single isomer, unassigned) [Example 468] | 0.719 µM
CC(C)C[C@H](NC(=O)c1ccc2c(c1)nc(Cc1cccs1)n2C1CCCCC1)C(=O)O [Example 108, (S)-2-[(1-Cyclohexyl-2-thiophen-2-ylmethyl-1H-benzoimidazole-5-carbonyl)-amino]-4-methyl-pentanoic acid] | 1.06 µM
CCCC(CO)NC(=O)c1ccc2c(c1)nc(Cc1cccs1)n2C(CC)CC (stereo not shown) [Example 196, 1-(1-Ethyl-propyl)-2-thiophen-2-ylmethyl-1H-benzoimidazole-5-carboxylic acid (1-hydroxymethyl-butyl)-amide] | 0.922 µM
CCC(CC)n1c(Cc2cscn2)nc2cc(C(=O)N[C@@H](CC(C)C)C(N)=O)ccc21 [Example 172, 1-(1-Ethyl-propyl)-2-thiazol-4-ylmethyl-1H-benzoimidazole-5-carboxylic acid ((S)-1-carbamoyl-3-methyl-butyl)-amide] | 4.89 µM
CCCC[C@H](CO)NC(=O)c1ccc2c(c1)nc(Cc1cccs1)n2C(CC)CC [Example 198, 1-(1-Ethyl-propyl)-2-thiophen-2-ylmethyl-1H-benzoimidazole-5-carboxylic acid ((R)-1-hydroxymethyl-pentyl)-amide] | 8.88 µM
CCC(CC)n1c(Cc2cccs2)nc2cc(C(=O)N[C@@H](CC(C)C)C(=O)NC3CCN(Cc4ccncc4)CC3)ccc21 [Example 298, 1-(1-Ethyl-propyl)-2-thiophen-2-ylmethyl-1H-benzoimidazole-5-carboxylic acid [(S)-3-methyl-1-(1-pyridin-4-ylmethyl-piperidin-4-ylcarbamoyl)-butyl]-amide] | 1.26 µM
CCC(CC)n1c(Cc2cccs2)nc2cc(C(=O)N[C@H](Cc3noc(-c4ccccc4)n3)CC(C)C)ccc21 [Example 474, 1-(1-Ethyl-propyl)-2-thiophen-2-ylmethyl-1H-benzoimidazole-5-carboxylic acid [(S)-3-methyl-1-(5-phenyl-[1,2,4]oxadiazol-3-ylmethyl)-butyl]-amide] | 34.5 µM
C[C@@H]1CCCC[C@H]1n1c(Cc2cccs2)nc2cc(C(=O)N[C@@H](CC3CCC3)C(=O)O)ccc21 [Example 23, (S)-3-Cyclobutyl-2-{[1-((1R,2R)-2-methyl-cyclohexyl)-2-thiophen-2-ylmethyl-1H-benzoimidazole-5-carbonyl]-amino}-propionic acid] | 0.106 µM
CCC(CC)n1c(Cc2cccs2)nc2cc(C(=O)NC(CC(C)C)c3nnc(C)o3)ccc21 (stereo not shown) [Example 481, 1-(1-Ethyl-propyl)-2-thiophen-2-ylmethyl-1H-benzoimidazole-5-carboxylic acid [3-methyl-1-(5-methyl-[1,3,4]oxadiazol-2-yl)-butyl]-amide] | 3.48 µM
CCCC[C@H](NC(=O)c1ccc2c(c1)nc(Cc1cccs1)n2C(CC)CC)C(=O)O [Example 18, (S)-2-{[1-(1-Ethyl-propyl)-2-thiophen-2-ylmethyl-1H-benzoimidazole-5-carbonyl]-amino}-hexanoic acid] | 0.15 µM
CCC(CC)n1c(Cc2cccs2)nc2cc(C(=O)N[C@@H](CC(C)C)C(=O)NCCCN3CCC(C)CC3)ccc21 [Example 320, 1-(1-Ethyl-propyl)-2-thiophen-2-ylmethyl-1H-benzoimidazole-5-carboxylic acid {(S)-3-methyl-1-[3-(4-methyl-piperidin-1-yl)-propylcarbamoyl]-butyl}-amide] | 0.386 µM
CCC(CC)n1c(Cc2cccs2)nc2cc(C(=O)NC(CC(C)C)c3cccnc3)ccc21 (stereo not shown) [Example 478, 1-(1-Ethyl-propyl)-2-thiophen-2-ylmethyl-1H-benzoimidazole-5-carboxylic acid (3-methyl-1-pyridin-3-yl-butyl)-amide] | 3.15 µM
CCC(CC)n1c(Cc2cccs2)nc2cc(C(=O)N[C@@H](CC(C)C)C(=O)NCCN3CCOCC3)ccc21 [Example 231, 1-(1-Ethyl-propyl)-2-thiophen-2-ylmethyl-1H-benzoimidazole-5-carboxylic acid [(S)-3-methyl-1-(2-morpholin-4-yl-ethylcarbamoyl)-butyl]-amide] | 0.525 µM
CCC(CC)n1c(Cc2cccs2)nc2cc(C(=O)N[C@@H](CC(C)C)C(=O)N3CC4CC3CN4CC3CCCC3)ccc21 (stereo partly drawn) [Example 349, 1-(1-Ethyl-propyl)-2-thiophen-2-ylmethyl-1H-benzoimidazole-5-carboxylic acid [(S)-1-(5-cyclopentylmethyl-2,5-diaza-bicyclo[2.2.1]heptane-2-carbonyl)-3-methyl-butyl]-amide] | 3.04 µM
CCC(CC)n1c(Cc2cccs2)nc2cc(C(=O)N[C@@H](CC(C)C)C(=O)NCCCN3CCC(Cc4ccccc4)CC3)ccc21 [Example 346, 1-(1-Ethyl-propyl)-2-thiophen-2-ylmethyl-1H-benzoimidazole-5-carboxylic acid {(S)-1-[3-(4-benzyl-piperidin-1-yl)-propylcarbamoyl]-3-methyl-butyl}-amide] | 1.32 µM
C[C@@H]1CCCC[C@H]1n1c(Cc2cccs2)nc2cc(C(=O)NC(CC3CCCCCC3)C(=O)O)ccc21 (stereo partly drawn) [Example 40, 3-Cycloheptyl-2-{[1-((1R,2R)-2-methyl-cyclohexyl)-2-thiophen-2-ylmethyl-1H-benzoimidazole-5-carbonyl]-amino}-propionic acid] | 0.915 µM
CCC(CC)n1c(Cc2ccco2)nc2cc(C(=O)NC(CC(=O)O)C(C)C)ccc21 (stereo not shown) [Example 41, 3-{[1-(1-Ethyl-propyl)-2-furan-2-ylmethyl-1H-benzoimidazole-5-carbonyl]-amino}-4-methyl-pentanoic acid] | 2.43 µM
CCC(CC)n1c(Cc2cccs2)nc2cc(C(=O)N[C@@H](CC(C)C)[C@H](O)CC(=O)O)ccc21 [Example 76, (3R,4S)-4-{[1-(1-Ethyl-propyl)-2-thiophen-2-ylmethyl-1H-benzoimidazole-5-carbonyl]-amino}-3-hydroxy-6-methyl-heptanoic acid] | 0.062 µM
CCC(CC)n1c(Cc2cccs2)nc2cc(C(=O)N[C@@H](CC(C)C)C(=O)N(C)CCCC3CCCO3)ccc21 (stereo partly drawn) [Example 392, 1-(1-Ethyl-propyl)-2-thiophen-2-ylmethyl-1H-benzoimidazole-5-carboxylic acid ((S)-3-methyl-1-{methyl-[3-(tetrahydro-furan-2-yl)-propyl]-carbamoyl}-butyl)-amide] | 1.38 µM
